What was measured:
Assay type in all cases: in vivo
[1] = system: pigweed (Amaranthus retroflexus); assay: Test A postemergence
How it was run: (§1)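 Visual injury, scored on a 0–100 scale relative to untreated controls, was recorded about 10 d after application. Treatments were a preemergence soil spray over planted seeds or a postemergence spray on plants at the one- to two-leaf stage, 2 to 10 cm tall, all in loam soil–sand blend in the greenhouse.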

[2] = system: ragweed (common ragweed, Ambrosia elatior); assay: Test A postemergence
How it was run: as §1

[3] = system: ryegrass, Italian (Italian ryegrass, Lolium multiflorum); assay: Test A postemergence
How it was run: as §1

corn (Zea mays) = assay: Test A postemergence
How it was run: as §1

Kochia (Kochia scoparia) [4] = assay: Test A postemergence
How it was run: as §1

[5] = system: barnyardgrass (Echinochloa crus-galli); assay: Test A postemergence
How it was run: as §1

[6] = system: wheat (Triticum aestivum); assay: Test A postemergence
How it was run: as §1

[7] = system: giant foxtail (Setaria faberii); assay: Test A postemergence
How it was run: as §1

[8] = system: Galium (catchweed bedstraw, Galium aparine); assay: Test A postemergence
How it was run: as §1

[9] = system: blackgrass (Alopecurus myosuroides); assay: Test A postemergence
How it was run: as §1

[10] = system: pigweed (Amaranthus retroflexus); assay: Test A preemergence
[11] = system: ragweed (common ragweed, Ambrosia elatior); assay: Test A preemergence
How it was run: as §1

[12] = system: ryegrass, Italian (Italian ryegrass, Lolium multiflorum); assay: Test A preemergence
How it was run: as §1

Kochia (Kochia scoparia) [13] = assay: Test A preemergence
How it was run: as §1

[14] = system: barnyardgrass (Echinochloa crus-galli); assay: Test A preemergence
How it was run: as §1

[15] = system: giant foxtail (Setaria faberii); assay: Test A preemergence
How it was run: as §1

[16] = system: sedge, umbrella (small-flower umbrella sedge, Cyperus difformis); assay: Test B flooded paddy test; details: Flood, 250 g ai/ha, 0 to 100 scale where 0 is no effect and 100 is complete control
How it was run: (§2)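 Visual ratings (0 none to 100 complete control) are relative to untreated plants, taken 13–15 d after treatment in a greenhouse. Test material went straight into floodwater standing 3 cm above the soil, kept constant, on plants at the 2-leaf stage.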

[17] = system: barnyardgrass (Echinochloa crus-galli); assay: Test B flooded paddy test; details: Flood, 250 g ai/ha, 0 to 100 scale where 0 is no effect and 100 is complete control
How it was run: as §2

[18] = system: ducksalad (Heteranthera limosa); assay: Test B flooded paddy test; details: Flood, 250 g ai/ha, 0 to 100 scale where 0 is no effect and 100 is complete control
How it was run: as §2

rice (Oryra sativa) = assay: Test B flooded paddy test; details: Flood, 250 g ai/ha, 0 to 100 scale where 0 is no effect and 100 is complete control
How it was run: as §2

[19] = 125 g ai/ha, postemergence, visual injury rating on 0 to 100 scale (0 no effect, 100 complete control), approx. 10 d
[20] = 500 g ai/ha, postemergence, 0 to 100 scale, 0 no effect, 100 complete control
[21] = Postemergence, 125 g ai/ha, visual injury, 0 to 100 scale (0 no effect, 100 complete control), approx. 10 d
[22] = 125 g ai/ha, preemergence, 0 to 100 scale (0 no effect, 100 complete control)
[23] = Preemergence, 500 g ai/ha, 0 is no effect, 100 is complete control

CN1CC(c2cccc(OC(F)(F)C(F)F)c2)C(C(=O)Nc2cccc(F)c2F)C1=O (stereo not shown) [Compound 392]
Pigweed plant response rating [1, 19]: 60
Plant response rating, Pigweed [1, 20]: 70
Ragweed plant response rating [2, 19]: 50
Plant response rating, Ragweed [2, 20]: 20
Ryegrass, Italian plant response rating [3, 19]: 50
Plant response rating, Ryegrass, Italian [3, 20]: 80
Corn plant response rating (corn (Zea mays); [19]): 70
Plant response rating, Corn (corn (Zea mays); [20]): 80
Kochia plant response rating (Kochia (Kochia scoparia) [4]; [19]): 50
Plant response rating, Kochia (Kochia (Kochia scoparia) [4]; [20]): 70
Plant response rating, Barnyardgrass [5, 20]: 90
Plant response rating, Barnyardgrass [5, 21]: 80
Wheat plant response rating [6, 19]: 20
Plant response rating, Wheat [6, 20]: 70
Foxtail, Giant plant response rating [7, 19]: 90
Plant response rating, Foxtail, Giant [7, 20]: 90
Galium plant response rating [8, 19]: 70
Plant response rating, Galium [8, 20]: 70
Plant response rating, Blackgrass [9, 20]: 70
Plant response rating, Blackgrass [9, 21]: 70
Plant response rating, Pigweed [10, 22]: 70
Pigweed plant response rating (0 to 100 scale) [10, 23]: 80
Plant response rating, Ragweed [11, 22]: 70
Ragweed plant response rating (0 to 100 scale) [11, 23]: 60
Plant response rating, Ryegrass, Italian [12, 22]: 40
Ryegrass, Italian plant response rating (0 to 100 scale) [12, 23]: 80
Plant response rating, Kochia (Kochia (Kochia scoparia) [13]; [22]): 50
Kochia plant response rating (0 to 100 scale) (Kochia (Kochia scoparia) [13]; [23]): 70
Plant response rating, Barnyardgrass [14, 22]: 90
Barnyardgrass plant response rating (0 to 100 scale) [14, 23]: 90
Plant response rating, Foxtail, Giant [15, 22]: 90
Foxtail, Giant plant response rating (0 to 100 scale) [15, 23]: 90
Plant response rating, Sedge, Umbrella ([16]; 13 to 15 d): 0
Plant response rating, Barnyardgrass ([17]; 13 to 15 d): 60
Plant response rating, Ducksalad ([18]; 13 to 15 d): 90
Plant response rating, Rice (rice (Oryra sativa); 13 to 15 d): 20

CN1C[C@H](c2cc(C(F)F)cs2)[C@@H](C(=O)Nc2cccc(F)n2)C1=O [Compound 1090]
pest or weed control at 125 g/ha ([1]; Amaranthus retroflexus, post-emergence, 240 h, 125 g ai/ha, postemergence, visual injury on 0 to 100 scale (0 no effect, 100 complete control), approx. 10 d, read-out: Pigweed plant response rating): 0%
pest or weed control at 31 g/ha ([1]; Amaranthus retroflexus, post-emergence, 240 h, Postemergence, 31 g ai/ha, visual injury after approx. 10 d, 0 to 100 scale, 0 no effect, 100 complete control, read-out: Plant response rating, Pigweed): 0%
pest or weed control at 125 g/ha ([2]; Ambrosia artemisiifolia, post-emergence, 240 h, 125 g ai/ha, postemergence, visual injury on 0 to 100 scale (0 no effect, 100 complete control), approx. 10 d, read-out: Ragweed plant response rating): 0%
pest or weed control at 31 g/ha ([2]; Ambrosia artemisiifolia, post-emergence, 240 h, Postemergence, 31 g ai/ha, visual injury after approx. 10 d, 0 to 100 scale, 0 no effect, 100 complete control, read-out: Plant response rating, Ragweed): 0%
pest or weed control at 125 g/ha ([3]; Lolium multiflorum, post-emergence, 240 h, 125 g ai/ha, postemergence, visual injury on 0 to 100 scale (0 no effect, 100 complete control), approx. 10 d, read-out: Ryegrass, Italian plant response rating): 0%
pest or weed control at 31 g/ha ([3]; Lolium multiflorum, post-emergence, 240 h, Postemergence, 31 g ai/ha, visual injury after approx. 10 d, 0 to 100 scale, 0 no effect, 100 complete control, read-out: Plant response rating, Ryegrass, Italian): 0%
plant injury at 125 g/ha (corn (Zea mays); Zea mays, post-emergence, 240 h, 125 g ai/ha, postemergence, visual injury on 0 to 100 scale (0 no effect, 100 complete control), approx. 10 d, read-out: Corn plant response rating): 20%
Corn plant response rating (crop injury, 0 = no effect, 100 = complete kill) at 31 g/ha (corn (Zea mays); Zea mays, post-emergence, 240 h, Postemergence, 31 g ai/ha, visual injury after approx. 10 d, 0 to 100 scale, 0 no effect, 100 complete control): 0%
pest or weed control at 125 g/ha (Kochia (Kochia scoparia) [4]; Bassia scoparia, post-emergence, 240 h, 125 g ai/ha, postemergence, visual injury on 0 to 100 scale (0 no effect, 100 complete control), approx. 10 d, read-out: Kochia plant response rating): 30%
pest or weed control at 31 g/ha (Kochia (Kochia scoparia) [4]; Bassia scoparia, post-emergence, 240 h, Postemergence, 31 g ai/ha, visual injury after approx. 10 d, 0 to 100 scale, 0 no effect, 100 complete control, read-out: Plant response rating, Kochia): 0%
plant injury at 125 g/ha ([6]; Triticum aestivum, post-emergence, 240 h, 125 g ai/ha, postemergence, visual injury on 0 to 100 scale (0 no effect, 100 complete control), approx. 10 d, read-out: Wheat plant response rating): 20%
plant injury at 31 g/ha ([6]; Triticum aestivum, post-emergence, 240 h, Postemergence, 31 g ai/ha, visual injury after approx. 10 d, 0 to 100 scale, 0 no effect, 100 complete control, read-out: Plant response rating, Wheat): 0%
pest or weed control at 125 g/ha ([7]; Setaria faberi, post-emergence, 240 h, 125 g ai/ha, postemergence, visual injury on 0 to 100 scale (0 no effect, 100 complete control), approx. 10 d, read-out: Foxtail, Giant plant response rating): 80%
pest or weed control at 31 g/ha ([7]; Setaria faberi, post-emergence, 240 h, Postemergence, 31 g ai/ha, visual injury after approx. 10 d, 0 to 100 scale, 0 no effect, 100 complete control, read-out: Plant response rating, Foxtail, Giant): 20%
pest or weed control at 125 g/ha ([8]; Galium, post-emergence, 240 h, 125 g ai/ha, postemergence, visual injury on 0 to 100 scale (0 no effect, 100 complete control), approx. 10 d, read-out: Galium plant response rating): 30%
pest or weed control at 31 g/ha ([8]; Galium, post-emergence, 240 h, Postemergence, 31 g ai/ha, visual injury after approx. 10 d, 0 to 100 scale, 0 no effect, 100 complete control, read-out: Plant response rating, Galium): 30%
pest or weed control at 125 g/ha ([9]; Alopecurus myosuroides, post-emergence, 240 h, 125 g ai/ha, postemergence, visual injury on 0 to 100 scale (0 no effect, 100 complete control), approx. 10 d, read-out: Blackgrass plant response rating): 20%
pest or weed control at 31 g/ha ([9]; Alopecurus myosuroides, post-emergence, 240 h, Postemergence, 31 g ai/ha, visual injury after approx. 10 d, 0 to 100 scale, 0 no effect, 100 complete control, read-out: Plant response rating, Blackgrass): 0%
pest or weed control at 31 g/ha ([10]; Amaranthus retroflexus, pre-emergence, 240 h, 31 g ai/ha, Preemergence, 0 to 100 scale where 0 is no effect and 100 is complete control, read-out: Pigweed plant response rating): 0%
pest or weed control at 125 g/ha ([10]; Amaranthus retroflexus, pre-emergence, 240 h, 125 g ai/ha, preemergence, 0 to 100 scale where 0 is no effect and 100 is complete control, approx. 10 d, read-out: Pigweed plant response rating): 0%
pest or weed control at 31 g/ha ([11]; Ambrosia artemisiifolia, pre-emergence, 240 h, 31 g ai/ha, Preemergence, 0 to 100 scale where 0 is no effect and 100 is complete control, read-out: Ragweed plant response rating): 0%
pest or weed control at 125 g/ha ([11]; Ambrosia artemisiifolia, pre-emergence, 240 h, 125 g ai/ha, preemergence, 0 to 100 scale where 0 is no effect and 100 is complete control, approx. 10 d, read-out: Ragweed plant response rating): 0%
pest or weed control at 31 g/ha ([12]; Lolium multiflorum, pre-emergence, 240 h, 31 g ai/ha, Preemergence, 0 to 100 scale where 0 is no effect and 100 is complete control, read-out: Ryegrass, Italian plant response rating): 30%
pest or weed control at 125 g/ha ([12]; Lolium multiflorum, pre-emergence, 240 h, 125 g ai/ha, preemergence, 0 to 100 scale where 0 is no effect and 100 is complete control, approx. 10 d, read-out: Ryegrass, Italian plant response rating): 0%
pest or weed control at 31 g/ha (Kochia (Kochia scoparia) [13]; Bassia scoparia, pre-emergence, 240 h, 31 g ai/ha, Preemergence, 0 to 100 scale where 0 is no effect and 100 is complete control, read-out: Kochia plant response rating): 20%
pest or weed control at 125 g/ha (Kochia (Kochia scoparia) [13]; Bassia scoparia, pre-emergence, 240 h, 125 g ai/ha, preemergence, 0 to 100 scale where 0 is no effect and 100 is complete control, approx. 10 d, read-out: Kochia plant response rating): 30%
pest or weed control at 31 g/ha ([14]; Echinochloa crus-galli, pre-emergence, 240 h, 31 g ai/ha, Preemergence, 0 to 100 scale where 0 is no effect and 100 is complete control, read-out: Barnyardgrass plant response rating): 10%
pest or weed control at 125 g/ha ([14]; Echinochloa crus-galli, pre-emergence, 240 h, 125 g ai/ha, preemergence, 0 to 100 scale where 0 is no effect and 100 is complete control, approx. 10 d, read-out: Barnyardgrass plant response rating): 90%
pest or weed control at 31 g/ha ([15]; Setaria faberi, pre-emergence, 240 h, 31 g ai/ha, Preemergence, 0 to 100 scale where 0 is no effect and 100 is complete control, read-out: Foxtail, Giant plant response rating): 60%
pest or weed control at 125 g/ha ([15]; Setaria faberi, pre-emergence, 240 h, 125 g ai/ha, preemergence, 0 to 100 scale where 0 is no effect and 100 is complete control, approx. 10 d, read-out: Foxtail, Giant plant response rating): 100%
pest or weed control at 250 g/ha ([16]; Cyperus difformis, read-out: Sedge, Umbrella plant response rating): 0%
pest or weed control at 250 g/ha ([17]; Echinochloa crus-galli, read-out: Barnyardgrass plant response rating): 80%
pest or weed control at 250 g/ha ([18]; Heteranthera limosa, read-out: Ducksalad plant response rating): 95%
pest or weed control at 250 g/ha (rice (Oryra sativa); Oryza sativa, read-out: Rice plant response rating): 0%

From patent publication US12077503B2, “Substituted cyclic amides and their use as herbicides” (FMC CORPORATION, priority 2015, dated 2024)
